{
  "source": "ChEMBL document CHEMBL1201862",
  "about": "“PubChem BioAssay data set” (2004)",
  "key": {"[1]": {"target": "T1, Heat shock factor protein 1 (Mus musculus, UniProt P38532)", "T1 sequence (P38532 whole entry)": "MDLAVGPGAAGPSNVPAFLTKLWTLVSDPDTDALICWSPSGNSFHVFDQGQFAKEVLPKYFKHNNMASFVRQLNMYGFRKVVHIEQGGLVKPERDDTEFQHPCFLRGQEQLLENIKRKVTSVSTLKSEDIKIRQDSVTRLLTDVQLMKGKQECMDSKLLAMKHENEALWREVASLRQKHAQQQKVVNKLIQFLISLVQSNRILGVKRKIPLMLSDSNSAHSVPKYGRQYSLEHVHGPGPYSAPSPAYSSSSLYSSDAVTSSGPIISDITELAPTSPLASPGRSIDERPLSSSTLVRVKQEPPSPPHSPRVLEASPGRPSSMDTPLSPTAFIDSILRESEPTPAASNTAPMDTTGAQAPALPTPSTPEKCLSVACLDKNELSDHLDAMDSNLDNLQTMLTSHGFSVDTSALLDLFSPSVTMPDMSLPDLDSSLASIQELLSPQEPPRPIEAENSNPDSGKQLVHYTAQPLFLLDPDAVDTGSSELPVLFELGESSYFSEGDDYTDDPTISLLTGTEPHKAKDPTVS", "assay": "enhancement of HSF1-driven luciferase signal – cell-based, NIH3T3, luminescence, dose retest, confirmation (AID 435004);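 further: stress induced by proteasome inhibitor MG132 added 30 min after compound; actives raise luminescence as potentiators of the MG132 stress response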", "assay_type": "functional"}, "[2]": {"assay": "Luminescence-based counterscreen assay for KLF5 inhibitors: dose response cell-based high throughput screening assay to identify cytotoxic compounds using the IEC-6 intestinal epithelial cell line. [Related pubchem assays: 1700 (Primary screen.), 1834 (Confirmation screen.), 1858 (Summary AID.), 1905 (Counterscreen.)]", "assay_type": "functional"}, "[3]": {"target": "Sphingosine 1-phosphate receptor 1 (Homo sapiens, UniProt P21453)", "sequence (P21453 whole entry)": "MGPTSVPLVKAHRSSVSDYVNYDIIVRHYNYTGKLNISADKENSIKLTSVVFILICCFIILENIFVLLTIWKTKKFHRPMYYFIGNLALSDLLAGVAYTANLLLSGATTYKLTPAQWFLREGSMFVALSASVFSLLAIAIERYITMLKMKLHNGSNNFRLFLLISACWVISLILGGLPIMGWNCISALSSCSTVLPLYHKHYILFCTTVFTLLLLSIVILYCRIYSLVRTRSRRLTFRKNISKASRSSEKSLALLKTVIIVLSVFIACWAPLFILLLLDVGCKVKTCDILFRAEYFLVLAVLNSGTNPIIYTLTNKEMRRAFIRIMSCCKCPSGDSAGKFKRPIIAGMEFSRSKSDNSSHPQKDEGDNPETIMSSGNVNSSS", "assay_type": "functional"}, "Beta-galactosidase": {"target": "Beta-galactosidase (Escherichia coli, UniProt Q8VNN2)", "sequence (Q8VNN2 whole entry)": "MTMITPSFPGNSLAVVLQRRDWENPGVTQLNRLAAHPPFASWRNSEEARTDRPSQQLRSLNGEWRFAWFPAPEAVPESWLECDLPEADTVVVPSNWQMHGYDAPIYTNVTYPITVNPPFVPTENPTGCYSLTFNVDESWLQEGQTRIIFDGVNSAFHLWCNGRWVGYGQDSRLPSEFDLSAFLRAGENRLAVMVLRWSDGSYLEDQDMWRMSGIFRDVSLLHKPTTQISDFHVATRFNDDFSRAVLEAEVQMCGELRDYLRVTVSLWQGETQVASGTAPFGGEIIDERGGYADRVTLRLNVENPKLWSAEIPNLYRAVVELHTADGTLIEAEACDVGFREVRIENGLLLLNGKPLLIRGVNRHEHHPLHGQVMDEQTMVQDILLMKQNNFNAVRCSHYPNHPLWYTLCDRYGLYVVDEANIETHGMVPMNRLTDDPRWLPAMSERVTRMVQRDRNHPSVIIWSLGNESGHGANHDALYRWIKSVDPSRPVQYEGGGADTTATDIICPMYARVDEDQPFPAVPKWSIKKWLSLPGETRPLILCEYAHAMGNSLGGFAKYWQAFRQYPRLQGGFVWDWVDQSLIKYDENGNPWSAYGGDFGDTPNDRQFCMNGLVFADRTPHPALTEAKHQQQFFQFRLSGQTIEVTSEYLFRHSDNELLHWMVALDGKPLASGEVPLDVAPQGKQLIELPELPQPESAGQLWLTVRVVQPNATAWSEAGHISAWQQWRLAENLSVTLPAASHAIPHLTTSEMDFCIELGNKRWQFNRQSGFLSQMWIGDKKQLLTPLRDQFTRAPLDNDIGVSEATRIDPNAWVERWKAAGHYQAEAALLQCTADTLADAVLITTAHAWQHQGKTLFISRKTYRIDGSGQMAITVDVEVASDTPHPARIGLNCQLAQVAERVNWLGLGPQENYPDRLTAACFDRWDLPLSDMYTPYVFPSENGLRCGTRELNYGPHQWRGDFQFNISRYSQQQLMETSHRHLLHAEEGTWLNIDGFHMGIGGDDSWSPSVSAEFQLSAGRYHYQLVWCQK", "assay": "PubChem AID 485352", "assay_type": "functional"}, "[4]": {"target": "T2, Replicative DNA helicase DnaB (Mycobacterium tuberculosis, UniProt P9WMR3)", "T2 sequence (P9WMR3 whole entry)": "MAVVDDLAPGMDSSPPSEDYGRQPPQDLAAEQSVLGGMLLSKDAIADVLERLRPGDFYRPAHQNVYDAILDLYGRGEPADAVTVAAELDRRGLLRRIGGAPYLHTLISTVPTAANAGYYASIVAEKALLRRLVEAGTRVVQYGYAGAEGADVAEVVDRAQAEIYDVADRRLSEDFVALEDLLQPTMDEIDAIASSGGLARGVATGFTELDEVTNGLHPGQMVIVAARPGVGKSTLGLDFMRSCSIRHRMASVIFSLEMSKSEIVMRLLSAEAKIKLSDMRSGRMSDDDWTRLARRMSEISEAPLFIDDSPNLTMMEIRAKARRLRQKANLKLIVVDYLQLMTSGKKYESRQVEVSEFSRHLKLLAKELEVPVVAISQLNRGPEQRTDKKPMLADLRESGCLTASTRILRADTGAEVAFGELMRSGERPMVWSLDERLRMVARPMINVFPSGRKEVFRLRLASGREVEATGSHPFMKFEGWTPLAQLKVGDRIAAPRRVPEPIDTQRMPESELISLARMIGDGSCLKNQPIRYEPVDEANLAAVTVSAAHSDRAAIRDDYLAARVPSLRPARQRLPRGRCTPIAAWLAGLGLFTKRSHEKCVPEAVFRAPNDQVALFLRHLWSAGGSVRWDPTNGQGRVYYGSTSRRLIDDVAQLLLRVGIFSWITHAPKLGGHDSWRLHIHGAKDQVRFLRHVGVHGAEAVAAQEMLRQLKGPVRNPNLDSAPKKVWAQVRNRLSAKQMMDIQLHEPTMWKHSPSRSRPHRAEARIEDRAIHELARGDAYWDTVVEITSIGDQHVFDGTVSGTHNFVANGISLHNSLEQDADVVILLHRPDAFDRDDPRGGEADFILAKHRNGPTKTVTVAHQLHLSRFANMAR", "assay": "DnaB intein splicing inhibitors, dose response, biochemical, cell-free fluorescence (AID 449749)", "assay_type": "functional"}, "[5]": {"target": "Heat shock protein HSP 90-alpha (Homo sapiens, UniProt P07900)", "assay": "Luminescence-based dose response biochemical high throughput screening assay for inhibitors of the Heat Shock Protein 90 (HSP90). [Related pubchem assays: 1831 (Summary AID.), 1846 (Confirmation screen.), 1789 (Primary screen.)]"}, "[6]": {"target": "T3, Apoptotic protease-activating factor 1 (Homo sapiens, UniProt O14727)", "T3 sequence (O14727 whole entry)": "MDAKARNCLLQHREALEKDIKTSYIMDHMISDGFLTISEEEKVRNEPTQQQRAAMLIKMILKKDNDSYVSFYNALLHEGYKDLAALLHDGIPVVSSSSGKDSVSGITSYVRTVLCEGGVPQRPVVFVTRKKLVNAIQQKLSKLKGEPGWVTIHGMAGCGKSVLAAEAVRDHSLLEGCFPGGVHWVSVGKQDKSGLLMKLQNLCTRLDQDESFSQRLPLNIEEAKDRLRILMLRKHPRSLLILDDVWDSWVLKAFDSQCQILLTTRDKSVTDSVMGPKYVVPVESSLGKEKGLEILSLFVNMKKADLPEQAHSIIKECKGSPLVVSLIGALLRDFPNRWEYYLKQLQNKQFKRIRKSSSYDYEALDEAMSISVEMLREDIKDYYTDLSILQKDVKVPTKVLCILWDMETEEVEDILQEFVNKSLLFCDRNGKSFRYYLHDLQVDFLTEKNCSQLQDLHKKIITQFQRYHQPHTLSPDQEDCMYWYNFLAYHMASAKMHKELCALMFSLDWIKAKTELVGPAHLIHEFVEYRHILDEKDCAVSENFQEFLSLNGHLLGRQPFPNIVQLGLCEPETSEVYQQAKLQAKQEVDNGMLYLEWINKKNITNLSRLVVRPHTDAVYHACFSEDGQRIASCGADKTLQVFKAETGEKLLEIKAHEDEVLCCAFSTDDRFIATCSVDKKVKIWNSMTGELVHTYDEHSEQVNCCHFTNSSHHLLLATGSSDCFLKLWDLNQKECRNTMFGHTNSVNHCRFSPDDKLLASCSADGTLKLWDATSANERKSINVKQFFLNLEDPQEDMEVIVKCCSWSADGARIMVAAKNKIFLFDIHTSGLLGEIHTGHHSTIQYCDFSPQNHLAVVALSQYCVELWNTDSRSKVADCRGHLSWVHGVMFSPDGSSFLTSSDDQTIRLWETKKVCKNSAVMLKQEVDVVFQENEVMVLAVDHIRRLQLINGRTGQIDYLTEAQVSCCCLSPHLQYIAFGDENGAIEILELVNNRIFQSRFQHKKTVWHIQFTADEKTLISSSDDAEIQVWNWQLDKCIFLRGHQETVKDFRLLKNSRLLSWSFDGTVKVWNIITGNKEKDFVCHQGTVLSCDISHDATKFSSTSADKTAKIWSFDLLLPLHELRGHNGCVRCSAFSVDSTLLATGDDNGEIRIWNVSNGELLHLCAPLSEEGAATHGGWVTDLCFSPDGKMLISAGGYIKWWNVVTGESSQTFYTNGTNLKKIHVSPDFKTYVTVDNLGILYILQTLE", "assay_type": "functional"}},
  "note": "The source made the active and inactive calls.",
  "data": [
    {"compound": "COc1cccc(/C=N/Nc2ccc([N+](=O)[O-])cn2)c1O", "values": [
      {"measurement": "EC50", "setting": "[1]", "result": "3.08 µM (active)"},
      {"measurement": "IC50", "setting": "[2]", "result": "16.2 µM (not active)"}
    ]},
    {"compound": "Oc1c(C(c2ccccc2Cl)N2CCCC2)ccc2cccnc12", "note": "(configuration not stated)", "values": [
      {"measurement": "IC50", "setting": "[3]", "result": "5.93 µM (active)"},
      {"measurement": "EC50", "setting": "Beta-galactosidase", "result": "> 40 µM (inactive)"}
    ]},
    {"compound": "CCc1ccc(S(=O)(=O)/N=C2\\C=C(Nc3ccc(C(=O)O)cc3)C(=O)c3ccccc32)cc1", "values": [
      {"measurement": "AC50", "setting": "[4]", "result": "> 380 µM (inconclusive)"},
      {"measurement": "IC50", "setting": "[5]", "result": "0.966 µM (active)"},
      {"measurement": "IC50", "setting": "[6]", "result": "9.6 µM (active)"}
    ]}
  ]
}
